Measurements from US20140128357A1, “METHODS OF PRODUCING AND USING BRASSINOSTEROIDS TO PROMOTE GROWTH, REPAIR AND MAINTENANCE OF SKELETAL MUSCLE AND SKIN” (Rutgers University, priority 2010, published 2014).
Marks after values point to notes of the source that are not given here.

Tests used:
[1] = Body composition and blood biochemistry, rats on normal diet, 24 d oral HB (Protocol 1); assay type: in vivo, rat; details: for Bone mineral content / Fat mass / Lean mass / change in fat mass vs control / increase in lean body mass vs control: DEXA
Procedure: Six-week-old male Wistar rats (180-220 g, Charles River Laboratories, MA) were housed in individual chambers in a room maintained at a constant room temperature with 12 h light-dark cycle. Animals had free access to food and water. Animals were allowed to adapt to new conditions for 7 d and handling the animals was carried out daily during this time to reduce the stress of physical manipulation. Animals were randomized into groups according to bodyweight 1 d prior to dosing.
The body weight of each animal and the total amount of food consumed (accounted for spillage) were recorded every 2 d for the duration of the experiment. At the end of the experiment, blood was collected by heart puncture after CO2 inhalation and animal body composition was assessed by DEXA dual-energy X-ray absorptiometry analysis using a Lunar Prodigy Densitometer (GE Healthcare, Waukesha, Wis.). At necropsy, tissue weights were recorded. Tissue samples were collected by snap-freezing in liquid nitrogen and stored at −80° C. for further studies. Total RNA was isolated using Trizol, its quantity and purity were determined using a NanoDrop (Nanodrop Technologies, Wilmington, Del.).
Blood samples were taken from overnight-fasted animals by heart puncture, collected in EDTA-coated tubes, centrifuged 1,500 g for 20 min, and separated plasma was stored at −80° C. until analysis. Glucose was measured in blood samples using a Lifescan glucometer (Johnson and Johnson, New Brunswick, N.J.). […] Plasma triglycerides and total cholesterol were measured by enzymatic colorimetric assays (Wako Diagnostics, Richmond, Va.). Total testosterone in plasma samples was quantified by an ELISA assay (DRG Diagnostics, Marburg, Germany).

[2] = system: elastin mRNA in human neonatal dermal fibroblasts (HNDF); test: Elastin gene expression in human dermal fibroblasts, qPCR; assay type: cell-based; details: 16 h
Procedure: Human neonatal dermal fibroblasts (HNDF) were maintained in DMEM+10% FBS and were kept in a humidified 37° C. incubator with 5% CO2. Cells were plated at a density of 1×10^4 cells per well in a 24-well plate and incubated for 24 h, or until 100% confluency was reached. Subsequently, the media was removed and cells were washed with 500 μL PBS twice to remove detached cells or cell debris. HNDF were then treated for 16 h as follows: DMEM only, retinoic Acid 5 μM, retinoic acid 10 μM, Homocastasterone 5 μM and Homocastasterone 10 μM.
RNA was extracted from HNDF using Trizol reagent (Invitrogen) following manufacturer instructions. RNA was quantified spectrophotometrically by absorbance measurements at 260 nm and 280 nm using the NanoDrop system (NanoDrop Technologies, Wilmington, Del.). Quality of RNA was assessed by separation in gel-electrophoresis. To remove any traces of DNA contamination, RNA was then treated with Dnase I (Invitrogen) following the manufacturer guidelines. Complementary DNAs (cDNAs) were synthesized using 3.0 μg of RNA for each sample using Applied Biosystems High Capacity cDNA Reverse Transcription Kit following the manufacturer's protocol.
Quantitative RT-PCR (qPCR) amplifications were carried out in triplicate on an ABI 7300 Real-Time Detection System in a total volume of 25 μl containing 12.5 μl Brilliant SYBR® Green PCR master mix (Applied Biosystems), 5 μl of the 1:25 diluted cDNA, 0.5 μl of 6 μM gene-specific primers (IDT, Coralville, Iowa) and […] PCR-grade water. Primers were synthesized by Integrated DNA Technologies, Inc. (Coralville, Iowa, USA) as follows: β-actin, forward primer 5′-ACGTTGCTATCCAGGCTGTGCTAT-3′ (SEQ ID NO: 1), reverse primer 5′-CTCGGTGAGGATCTTCATGAGGTAGT-3′ (SEQ ID NO: 2); elastin, forward primer 5′-AAGCAGCAGCAAAGTTCGGT-3′ (SEQ ID NO: 3), and reverse primer 5′-ACTAAGCCTGCAGCAGCTCCATA-3′ (SEQ ID NO: 4). qPCR amplifications were performed on the 7300 Real Time PCR System (A&B Applied Biosystems) using 1 cycle at 50° C. for 2 min, 1 cycle at 95° C. for 10 min, followed by 40 cycles of 15 s at 95° C. and 1 min at 60° C. The dissociation curve was completed with one cycle of 15 s at 95° C., 1 min at 60° C., and 15 s of 95° C. No RT (NRT) and no template control (NTC) were included in each experiment as quality control steps. Target mRNA expression was analyzed using the ΔΔCt method and normalized with respect to the expression of the β-actin housekeeping gene. Cells treated with DMEM only (negative control) served as the calibrator sample in this study, and a value of 1.0 was assigned to the target gene expression of the calibrator sample. All samples were run in triplicate. A p value of 0.001 was considered to be significant.

CC[C@@H](C(C)C)[C@H](O)[C@@H](O)[C@@H](C)[C@H]1CC[C@H]2[C@@H]3COC(=O)[C@H]4C[C@H](O)[C@H](O)C[C@]4(C)[C@H]3CC[C@]12C [Compound 1, (22S,23S,24S)-2α,3α,22,23-tetrahydroxy-24 ethyl-β-homo-7-oxo-5α-cholestane-6-one]
Body weight ([1]; 20 mg/kg oral daily 24 d): 324.3 ± 11.5 g
Body weight gain ([1]; 20 mg/kg oral daily 24 d): 126.6 ± 7.1 g
Gastrocnemius muscle ([1]; 20 mg/kg oral daily 24 d): 2.07 ± 0.06 g
increase in gastrocnemius muscle mass ([1]; 20 mg/kg oral daily 24 d): 15.6%
increase of total body weight gain relative to initial body weight, compared with vehicle-treated controls ([1]; 20 mg/kg oral daily 24 d): 18.3%
Bone mineral content ([1]; 20 mg/kg oral daily 24 d): 7.0 ± 0.3 g
Fat mass ([1]; 20 mg/kg oral daily 24 d): 49.0 ± 4.3 g
Lean mass ([1]; 20 mg/kg oral daily 24 d): 268.3 ± 9.0 g
change in fat mass vs control ([1]; 20 mg/kg oral daily 24 d): −3.9%
increase in lean body mass vs control ([1]; 20 mg/kg oral daily 24 d): 7.0%
Body weight ([1]; 60 mg/kg oral daily 24 d): 342.3 ± 4.9 g
Body weight gain ([1]; 60 mg/kg oral daily 24 d): 135.7 ± 9.4 g
Gastrocnemius muscle ([1]; 60 mg/kg oral daily 24 d): 2.13 ± 0.12 g
increase in gastrocnemius muscle mass ([1]; 60 mg/kg oral daily 24 d): 19.0%
increase of total body weight gain relative to initial body weight, compared with vehicle-treated controls ([1]; 60 mg/kg oral daily 24 d): 26.8%
Bone mineral content ([1]; 60 mg/kg oral daily 24 d): 7.4 ± 0.1 g
Fat mass ([1]; 60 mg/kg oral daily 24 d): 48.5 ± 3.8 g
Lean mass ([1]; 60 mg/kg oral daily 24 d): 286.5 ± 4.3 g
change in fat mass vs control ([1]; 60 mg/kg oral daily 24 d): −4.9%
increase in lean body mass vs control ([1]; 60 mg/kg oral daily 24 d): 14.2%

CC[C@@H](C(C)C)[C@H](O)[C@@H](O)[C@@H](C)[C@H]1CC[C@H]2[C@@H]3CC(=O)[C@H]4C[C@H](O)[C@H](O)C[C@]4(C)[C@H]3CC[C@]12C [Compound 2, (22S,23S,24S)-2α,3α, 22,23-tetrahydroxy-24-ethyl-5α-cholestan-6-one]
Increase in elastin mRNA levels (-fold over control) ([2]; 5 μM): 1.7 fold
Increase in elastin mRNA levels (-fold over control) ([2]; 10 μM, listed as Homocastasterone): 3.2** fold
Increase in elastin mRNA levels (-fold over control) ([2]; 10 μM, listed as homocastasterone): up to 3.23±0.4 fold
